Experimental data as given in patent US11684589B2, “Pharmaceutical compositions for use in the therapy of blepharitis” (NOVALIQ GMBH, priority 2016, dated 2023).

How the values were obtained:
Type in all cases: in vivo, patients
anterior blepharitis = assay: Assessment of anterior blepharitis severity in observational patient study; details: for Anterior blepharitis shift table, changes from baseline for both eyes: 7 weeks
Method: (§1) A prospective, uncontrolled, open-label, multi-center observational study was conducted with a total of 72 (53 female, 19 male) patients included, with 1 to 20 patients per site. Two patients were lost for follow-up during the study. Patients to be included had to fulfill following criteria: • Males or females≥18 years of age; • Patients with symptoms as determined by • Tear Film Break-Up Time (TFBUT)≤10 s • Ocular Surface Disease Index≥16 and ≤55 • Schirmer I Test≥2 mm (recorded within 5 min) • Sum of peripheral corneal and conjunctival staining grade≤10 (Oxford) • Altered secretion and expressibility of the meibomian glands. Among those, patients fulfilling the following criteria were not included in the study: • Known hypersensitivity to any of the components of NovaTears®; • Contact lens wear, pregnancy, or breast feeding; • Presence of dry eye disease (DED) caused by any other known underlying systemic disease; • Planned ophthalmologic surgical procedure during the course of the study; • Use of lipid-containing or tear-film stabilizing eye drops/sprays except cyclosporin formulations. Patients selected as described above were administered 1-perfluorohexyloctane (F6H8) eye drops, manufactured under the tradename “NovaTears®” (Novaliq GmbH, Heidelberg, Germany) for a period of 7 weeks. Said formulation consists essentially of 1-perfluorohexyloctane (F6H8), it is water-free and contains no additional preservatives or ingredients. A dose of 3 to 4 droplets (corresponding to 40 μl, 10 μl per drop) per eye and day were administered topically to the eye, with 1 droplet being administered as a single dose. NovaTears® single droplets were administered directly to the surface of the eye into a pocket that was formed by gently pulling down the lower eyelid. Assessment of the eyes treated was performed once before the start of NovaTears® administration (baseline) and once after 7 weeks of treatment (follow-up). Anterior blepharitis involves inflammation of the lid margin anterior to the gray line and is usually concentrated around the eyelashes and follicles. Posterior blepharitis involves inflammation of the posterior lid margin. The severity of anterior and posterior blepharitis was rated separately for each eye by selecting one of the following ratings: “none”, “+”, “++”, “+++” (with “+++” indicating most severe blepharitis anterior or posterior).

posterior blepharitis = assay: Assessment of posterior blepharitis severity in observational patient study; details: for Posterior blepharitis shift table, changes from baseline for both eyes: 7 weeks
Method: as §1

[1] = system: abnormal lid margin features; assay: Lid margin assessment (abnormal lid margin features) in observational patient study
Method: A prospective, uncontrolled, open-label, multi-center observational study was conducted with a total of 72 (53 female, 19 male) patients included, with 1 to 20 patients per site. Two patients were lost for follow-up during the study. Patients to be included had to fulfill following criteria: • Males or females≥18 years of age; • Patients with symptoms as determined by • Tear Film Break-Up Time (TFBUT)≤10 s • Ocular Surface Disease Index≥16 and ≤55 • Schirmer I Test≥2 mm (recorded within 5 min) • Sum of peripheral corneal and conjunctival staining grade≤10 (Oxford) • Altered secretion and expressibility of the meibomian glands.
Among those, patients fulfilling the following criteria were not included in the study: • Known hypersensitivity to any of the components of NovaTears®; • Contact lens wear, pregnancy, or breast feeding; • Presence of dry eye disease (DED) caused by any other known underlying systemic disease; • Planned ophthalmologic surgical procedure during the course of the study; • Use of lipid-containing or tear-film stabilizing eye drops/sprays except cyclosporin formulations.
Patients selected as described above were administered 1-perfluorohexyloctane (F6H8) eye drops, manufactured under the tradename “NovaTears®” (Novaliq GmbH, Heidelberg, Germany) for a period of 7 weeks. Said formulation consists essentially of 1-perfluorohexyloctane (F6H8), it is water-free and contains no additional preservatives or ingredients. A dose of 3 to 4 droplets (corresponding to 40 μl, 10 μl per drop) per eye and day were administered topically to the eye, with 1 droplet being administered as a single dose. NovaTears® single droplets were administered directly to the surface of the eye into a pocket that was formed by gently pulling down the lower eyelid. Assessment of the eyes treated was performed once before the start of NovaTears® administration (baseline) and once after 7 weeks of treatment (follow-up).
Lid Margin Assessment As a further parameter abnormal lid margin features, such as teleangiectasia, plugging and lid swelling were assessed in the study. Assessment was performed for each eye separately.

[2] = 7 weeks of treatment, 3 to 4 droplets per eye and day, including patients with scores ++ and +

CCCCCCCCC(F)(F)C(F)(F)C(F)(F)C(F)(F)C(F)(F)C(F)(F)F [1-perfluorohexyloctane] was tested, and the “Severity of anterior blepharitis after treatment” value (anterior blepharitis; [2]) was “decreased for all patients”, the “Anterior blepharitis shift table, changes from baseline for both eyes” value (anterior blepharitis; baseline +++, follow-up +++) was 0 eyes and the “Anterior blepharitis shift table, changes from baseline for both eyes” value (anterior blepharitis; baseline +++, follow-up ++) was 0 eyes. The “Anterior blepharitis shift table, changes from baseline for both eyes” value (anterior blepharitis; baseline +++, follow-up +) was 0 eyes, the “Anterior blepharitis shift table, changes from baseline for both eyes” value (anterior blepharitis; baseline +++, follow-up none) was 0 eyes and the “Anterior blepharitis shift table, changes from baseline for both eyes” value (anterior blepharitis; baseline ++, follow-up +++) was 0 eyes. The “Anterior blepharitis shift table, changes from baseline for both eyes” value (anterior blepharitis; baseline ++, follow-up ++) was 4 eyes, the “Anterior blepharitis shift table, changes from baseline for both eyes” value (anterior blepharitis; baseline ++, follow-up +) was 7 eyes and the “Anterior blepharitis shift table, changes from baseline for both eyes” value (anterior blepharitis; baseline ++, follow-up none) was 4 eyes. The “Anterior blepharitis shift table, changes from baseline for both eyes” value (anterior blepharitis; baseline +, follow-up +++) was 0 eyes, the “Anterior blepharitis shift table, changes from baseline for both eyes” value (anterior blepharitis; baseline +, follow-up ++) was 1 eyes and the “Anterior blepharitis shift table, changes from baseline for both eyes” value (anterior blepharitis; baseline +, follow-up +) was 20 eyes. For the same molecule, the “Anterior blepharitis shift table, changes from baseline for both eyes” value (anterior blepharitis; baseline +, follow-up none) was 38 eyes, the “Anterior blepharitis shift table, changes from baseline for both eyes” value (anterior blepharitis; baseline none, follow-up +++) was 0 eyes and the “Anterior blepharitis shift table, changes from baseline for both eyes” value (anterior blepharitis; baseline none, follow-up ++) was 2 eyes. The “Anterior blepharitis shift table, changes from baseline for both eyes” value (anterior blepharitis; baseline none, follow-up +) was 15 eyes, the “Anterior blepharitis shift table, changes from baseline for both eyes” value (anterior blepharitis; baseline none, follow-up none) was 31 eyes and the “Assessment of anterior blepharitis, grade +++” value (anterior blepharitis; follow-up after 7 weeks of treatment, 122 eyes from 61 patients, baseline 0) was 0 eyes. For the same molecule, the “Assessment of anterior blepharitis, grade ++” value (anterior blepharitis; follow-up after 7 weeks of treatment, 122 eyes from 61 patients, baseline 15) was 7 eyes, the “Assessment of anterior blepharitis, grade none” value (anterior blepharitis; follow-up after 7 weeks of treatment, 122 eyes from 61 patients, baseline 48) was 73 eyes and the “Assessment of anterior blepharitis, grade +” value (anterior blepharitis; follow-up after 7 weeks of treatment, 122 eyes from 61 patients, baseline 59) was 42 eyes. For the same molecule, the “Severity of posterior blepharitis after treatment” value (posterior blepharitis; [2]) was “decreased for all patients”, the “Posterior blepharitis shift table, changes from baseline for both eyes” value (posterior blepharitis; baseline 0 (none), follow-up 0 (none)) was 26 eyes and the “Posterior blepharitis shift table, changes from baseline for both eyes” value (posterior blepharitis; baseline 0 (none), follow-up +++) was 0 eyes. For the same molecule, the “Posterior blepharitis shift table, changes from baseline for both eyes” value (posterior blepharitis; baseline 0 (none), follow-up ++) was 0 eyes, the “Posterior blepharitis shift table, changes from baseline for both eyes” value (posterior blepharitis; baseline 0 (none), follow-up +) was 5 eyes and the “Posterior blepharitis shift table, changes from baseline for both eyes” value (posterior blepharitis; baseline +++, follow-up 0 (none)) was 4 eyes. For the same molecule, the “Posterior blepharitis shift table, changes from baseline for both eyes” value (posterior blepharitis; baseline +++, follow-up +++) was 0 eyes, the “Posterior blepharitis shift table, changes from baseline for both eyes” value (posterior blepharitis; baseline +++, follow-up ++) was 0 eyes and the “Posterior blepharitis shift table, changes from baseline for both eyes” value (posterior blepharitis; baseline +++, follow-up +) was 2 eyes. For the same molecule, the “Posterior blepharitis shift table, changes from baseline for both eyes” value (posterior blepharitis; baseline ++, follow-up 0 (none)) was 10 eyes, the “Posterior blepharitis shift table, changes from baseline for both eyes” value (posterior blepharitis; baseline ++, follow-up +++) was 0 eyes and the “Posterior blepharitis shift table, changes from baseline for both eyes” value (posterior blepharitis; baseline ++, follow-up ++) was 8 eyes. The “Posterior blepharitis shift table, changes from baseline for both eyes” value (posterior blepharitis; baseline ++, follow-up +) was 14 eyes, the “Posterior blepharitis shift table, changes from baseline for both eyes” value (posterior blepharitis; baseline +, follow-up 0 (none)) was 20 eyes and the “Posterior blepharitis shift table, changes from baseline for both eyes” value (posterior blepharitis; baseline +, follow-up +++) was 0 eyes. For the same molecule, the “Posterior blepharitis shift table, changes from baseline for both eyes” value (posterior blepharitis; baseline +, follow-up ++) was 3 eyes, the “Posterior blepharitis shift table, changes from baseline for both eyes” value (posterior blepharitis; baseline +, follow-up +) was 30 eyes and the “Assessment of posterior blepharitis, grade +++” value (posterior blepharitis; follow-up after 7 weeks of treatment, 122 eyes from 61 patients, baseline 6) was 0 eyes. The “Assessment of posterior blepharitis, grade none” value (posterior blepharitis; follow-up after 7 weeks of treatment, 122 eyes from 61 patients, baseline 31) was 60 eyes, the “Assessment of posterior blepharitis, grade ++” value (posterior blepharitis; follow-up after 7 weeks of treatment, 122 eyes from 61 patients, baseline 32) was 11 eyes and the “Assessment of posterior blepharitis, grade +” value (posterior blepharitis; follow-up after 7 weeks of treatment, 122 eyes from 61 patients, baseline 53) was 51 eyes. The “Reduction in the severity of posterior blepharitis after treatment” value (posterior blepharitis; patients with the most severe posterior blepharitis rated +++) was “most significant reduction”, the “Abnormal lid margin features (teleangiectasia, plugging, lid swelling) after treatment” value ([1]; 7 weeks of treatment) was “significantly reduced” and the “Assessment of lid margin, Lid Swelling” value ([1]; follow-up after 7 weeks of treatment, assessed for each eye separately, baseline 30) was 20. The “Assessment of lid margin, Teleangiectasia” value ([1]; follow-up after 7 weeks of treatment, assessed for each eye separately, baseline 74) was 49 and the “Assessment of lid margin, Plugging” value ([1]; follow-up after 7 weeks of treatment, assessed for each eye separately, baseline 90) was 59.
